Experimental data as given in patent US4298525A, “Bis-indole-alkaloid” (Richter Gedeon Vegyeszeti Gyar RT, priority 1979, dated 1981).

Experiments:
[1] = tested on: Ehrlich ascites carcinoma; assay: effect on Ehrlich ascites carcinoma; type: in vivo, outbred Swiss mice; details: large single dose
Method: Transplantation was carried out into outbred Swiss mice at a level of 5×10^6 ascites tumor cells. Administration of RGH-4451 was started 24 hours after transplantation.

[2] = in vivo
[3] = administration of vincristine; cited from earlier work

## CC[C@]1(O)C[C@H]2CN(CCc3c([nH]c4ccccc34)[C@@](C(=O)OC)(c3cc4c(cc3OC)N(C=O)[C@H]3[C@@](O)(C(=O)OC)[C@H](OC(C)=O)[C@]5(CC)C=CCN6CC[C@]43[C@@H]65)C2)C1 [vincristine, N-desmethyl-N-formylvinblastine]
[1]
  effect of a large single dose on the duration of life: did not increase the duration of life
[2]
  MTD/min eff. D: 6
[3]
  toxic side effects: paralytic symptoms due to neurotoxicity
